Test results: the NIST ThermoML archive (doi:10.1021/je049609w)
Numbers after ± are expanded uncertainties.

Columns and labels:
[1] = refractive index (Na D-line) (dimensionless); xn = mol fraction of the nth substance listed; settings: 101 kPa, Liquid
[2] = xn = mol fraction of the nth substance listed; settings: 101 kPa, Liquid

**Q.** Which refractive index ([1]; 298.15 K, x1 = 1) does the source give for C1COCCO1 [1,4-dioxane] + CCOC(=O)CC(=O)OCC here?
**A.** 1.4203 ± 0.0024

**Q.** What about the refractive index ([1]; 303.15 K, x1 = 1) of the same molecule?
**A.** 1.4164 ± 0.0024

**Q.** And the refractive index ([1]; 308.15 K, x1 = 1)?
**A.** 1.4145 ± 0.0024

**Q.** What about the mass density ([2]; 298.15 K, x1 = 1) of the same molecule?
**A.** 1028.6 ± 1.4 kg/m3

**Q.** And the speed of sound ([2]; 298.15 K, x1 = 1)?
**A.** 1345 ± 7 m/s

**Q.** What about the viscosity ([2]; 298.15 K, x1 = 1) of the same molecule?
**A.** 1.196 ± 0.038 mPa·s

**Q.** What about the mass density ([2]; 303.15 K, x1 = 1) of the same molecule?
**A.** 1022.9 ± 1.5 kg/m3

**Q.** What about the viscosity ([2]; 303.15 K, x1 = 1) of the same molecule?
**A.** 1.095 ± 0.035 mPa·s

**Q.** And the mass density ([2]; 308.15 K, x1 = 1)?
**A.** 1017.2 ± 1.5 kg/m3

**Q.** And the viscosity ([2]; 308.15 K, x1 = 1)?
**A.** 1.008 ± 0.032 mPa·s

**Q.** What does the source list for C1COCCO1 [1,4-dioxane] + CCOC(C)=O?
**A.** refractive index ([1]; 298.15 K, x1 = 0.1004): 1.3753 ± 0.0024; refractive index ([1]; 298.15 K, x1 = 0.2001): 1.3798 ± 0.0024; refractive index ([1]; 298.15 K, x1 = 0.3021): 1.3843 ± 0.0024; refractive index ([1]; 298.15 K, x1 = 0.4002): 1.389 ± 0.0024; refractive index ([1]; 298.15 K, x1 = 0.5071): 1.3942 ± 0.0024; refractive index ([1]; 298.15 K, x1 = 0.6001): 1.3991 ± 0.0024; refractive index ([1]; 298.15 K, x1 = 0.6972): 1.4041 ± 0.0024; refractive index ([1]; 298.15 K, x1 = 0.799): 1.4094 ± 0.0024; refractive index ([1]; 298.15 K, x1 = 0.8991): 1.4148 ± 0.0024; refractive index ([1]; 298.15 K, x1 = 1): 1.4203 ± 0.0024; refractive index ([1]; 303.15 K, x1 = 0.1004): 1.3716 ± 0.0024; refractive index ([1]; 303.15 K, x1 = 0.2001): 1.3764 ± 0.0024; refractive index ([1]; 303.15 K, x1 = 0.3021): 1.3813 ± 0.0024; refractive index ([1]; 303.15 K, x1 = 0.4002): 1.3862 ± 0.0024; refractive index ([1]; 303.15 K, x1 = 0.5071): 1.3915 ± 0.0024; refractive index ([1]; 303.15 K, x1 = 0.6001): 1.3964 ± 0.0024; refractive index ([1]; 303.15 K, x1 = 0.6972): 1.4015 ± 0.0024; refractive index ([1]; 303.15 K, x1 = 0.799): 1.4069 ± 0.0024; refractive index ([1]; 303.15 K, x1 = 0.8991): 1.4122 ± 0.0024; refractive index ([1]; 303.15 K, x1 = 1): 1.4164 ± 0.0024; refractive index ([1]; 308.15 K, x1 = 0.1004): 1.368 ± 0.0024; refractive index ([1]; 308.15 K, x1 = 0.2001): 1.373 ± 0.0024; refractive index ([1]; 308.15 K, x1 = 0.3021): 1.3782 ± 0.0024; refractive index ([1]; 308.15 K, x1 = 0.4002): 1.3834 ± 0.0024; refractive index ([1]; 308.15 K, x1 = 0.5071): 1.3889 ± 0.0024; refractive index ([1]; 308.15 K, x1 = 0.6001): 1.3938 ± 0.0024; refractive index ([1]; 308.15 K, x1 = 0.6972): 1.3989 ± 0.0024; refractive index ([1]; 308.15 K, x1 = 0.799): 1.4044 ± 0.0024; refractive index ([1]; 308.15 K, x1 = 0.8991): 1.4097 ± 0.0024; refractive index ([1]; 308.15 K, x1 = 1): 1.4145 ± 0.0024; mass density ([2]; 298.15 K, x1 = 0.1004): 906.2 ± 1.2 kg/m3; speed of sound ([2]; 298.15 K, x1 = 0.1004): 1174 ± 7 m/s; viscosity ([2]; 298.15 K, x1 = 0.1004): 0.467 ± 0.017 mPa·s; mass density ([2]; 298.15 K, x1 = 0.2001): 918.8 ± 1.2 kg/m3; speed of sound ([2]; 298.15 K, x1 = 0.2001): 1193 ± 7 m/s; viscosity ([2]; 298.15 K, x1 = 0.2001): 0.505 ± 0.018 mPa·s; mass density ([2]; 298.15 K, x1 = 0.3021): 931.9 ± 1.2 kg/m3; speed of sound ([2]; 298.15 K, x1 = 0.3021): 1212 ± 7 m/s; viscosity ([2]; 298.15 K, x1 = 0.3021): 0.543 ± 0.019 mPa·s; mass density ([2]; 298.15 K, x1 = 0.4002): 944.7 ± 1.3 kg/m3; speed of sound ([2]; 298.15 K, x1 = 0.4002): 1231 ± 7 m/s; viscosity ([2]; 298.15 K, x1 = 0.4002): 0.595 ± 0.021 mPa·s; mass density ([2]; 298.15 K, x1 = 0.5071): 958.7 ± 1.3 kg/m3; speed of sound ([2]; 298.15 K, x1 = 0.5071): 1250 ± 7 m/s; viscosity ([2]; 298.15 K, x1 = 0.5071): 0.646 ± 0.022 mPa·s; mass density ([2]; 298.15 K, x1 = 0.6001): 971.1 ± 1.3 kg/m3; speed of sound ([2]; 298.15 K, x1 = 0.6001): 1269 ± 7 m/s; viscosity ([2]; 298.15 K, x1 = 0.6001): 0.707 ± 0.024 mPa·s; mass density ([2]; 298.15 K, x1 = 0.6972): 984.4 ± 1.3 kg/m3; speed of sound ([2]; 298.15 K, x1 = 0.6972): 1288 ± 7 m/s; viscosity ([2]; 298.15 K, x1 = 0.6972): 0.791 ± 0.026 mPa·s; mass density ([2]; 298.15 K, x1 = 0.799): 998.7 ± 1.4 kg/m3; speed of sound ([2]; 298.15 K, x1 = 0.799): 1307 ± 7 m/s; viscosity ([2]; 298.15 K, x1 = 0.799): 0.908 ± 0.03 mPa·s; mass density ([2]; 298.15 K, x1 = 0.8991): 1013.3 ± 1.4 kg/m3; speed of sound ([2]; 298.15 K, x1 = 0.8991): 1327 ± 7 m/s; viscosity ([2]; 298.15 K, x1 = 0.8991): 1.029 ± 0.033 mPa·s; mass density ([2]; 298.15 K, x1 = 1): 1028.6 ± 1.4 kg/m3; speed of sound ([2]; 298.15 K, x1 = 1): 1345 ± 7 m/s; viscosity ([2]; 298.15 K, x1 = 1): 1.195 ± 0.038 mPa·s; mass density ([2]; 303.15 K, x1 = 0.1004): 900 ± 1.2 kg/m3; viscosity ([2]; 303.15 K, x1 = 0.1004): 0.442 ± 0.017 mPa·s; mass density ([2]; 303.15 K, x1 = 0.2001): 912.7 ± 1.3 kg/m3; viscosity ([2]; 303.15 K, x1 = 0.2001): 0.478 ± 0.018 mPa·s; mass density ([2]; 303.15 K, x1 = 0.3021): 925.8 ± 1.3 kg/m3; viscosity ([2]; 303.15 K, x1 = 0.3021): 0.513 ± 0.019 mPa·s; mass density ([2]; 303.15 K, x1 = 0.4002): 938.7 ± 1.3 kg/m3; viscosity ([2]; 303.15 K, x1 = 0.4002): 0.56 ± 0.02 mPa·s; mass density ([2]; 303.15 K, x1 = 0.5071): 952.8 ± 1.3 kg/m3; viscosity ([2]; 303.15 K, x1 = 0.5071): 0.607 ± 0.021 mPa·s; mass density ([2]; 303.15 K, x1 = 0.6001): 965.2 ± 1.4 kg/m3; viscosity ([2]; 303.15 K, x1 = 0.6001): 0.671 ± 0.023 mPa·s; mass density ([2]; 303.15 K, x1 = 0.6972): 978.6 ± 1.4 kg/m3; viscosity ([2]; 303.15 K, x1 = 0.6972): 0.735 ± 0.025 mPa·s; mass density ([2]; 303.15 K, x1 = 0.799): 993 ± 1.4 kg/m3; viscosity ([2]; 303.15 K, x1 = 0.799): 0.843 ± 0.028 mPa·s; mass density ([2]; 303.15 K, x1 = 0.8991): 1007.7 ± 1.4 kg/m3; viscosity ([2]; 303.15 K, x1 = 0.8991): 0.951 ± 0.031 mPa·s; mass density ([2]; 303.15 K, x1 = 1): 1022.9 ± 1.5 kg/m3; viscosity ([2]; 303.15 K, x1 = 1): 1.095 ± 0.035 mPa·s; mass density ([2]; 308.15 K, x1 = 0.1004): 893.9 ± 1.3 kg/m3; viscosity ([2]; 308.15 K, x1 = 0.1004): 0.417 ± 0.016 mPa·s; mass density ([2]; 308.15 K, x1 = 0.2001): 906.6 ± 1.3 kg/m3; viscosity ([2]; 308.15 K, x1 = 0.2001): 0.45 ± 0.017 mPa·s; mass density ([2]; 308.15 K, x1 = 0.3021): 919.8 ± 1.3 kg/m3; viscosity ([2]; 308.15 K, x1 = 0.3021): 0.482 ± 0.018 mPa·s; mass density ([2]; 308.15 K, x1 = 0.4002): 932.7 ± 1.4 kg/m3; viscosity ([2]; 308.15 K, x1 = 0.4002): 0.525 ± 0.019 mPa·s; mass density ([2]; 308.15 K, x1 = 0.5071): 946.9 ± 1.4 kg/m3; viscosity ([2]; 308.15 K, x1 = 0.5071): 0.568 ± 0.02 mPa·s; mass density ([2]; 308.15 K, x1 = 0.6001): 959.5 ± 1.4 kg/m3; viscosity ([2]; 308.15 K, x1 = 0.6001): 0.616 ± 0.021 mPa·s; mass density ([2]; 308.15 K, x1 = 0.6972): 972.8 ± 1.4 kg/m3; viscosity ([2]; 308.15 K, x1 = 0.6972): 0.684 ± 0.023 mPa·s; mass density ([2]; 308.15 K, x1 = 0.799): 987.2 ± 1.5 kg/m3; viscosity ([2]; 308.15 K, x1 = 0.799): 0.778 ± 0.026 mPa·s; mass density ([2]; 308.15 K, x1 = 0.8991): 1001.9 ± 1.5 kg/m3; viscosity ([2]; 308.15 K, x1 = 0.8991): 0.873 ± 0.029 mPa·s; mass density ([2]; 308.15 K, x1 = 1): 1017.2 ± 1.5 kg/m3; viscosity ([2]; 308.15 K, x1 = 1): 1.008 ± 0.032 mPa·s
